Laboratory results from paper PMC4183595, “Study on the Main Components Interaction from Flos Lonicerae and Fructus Forsythiae and Their Dissolution In Vitro and Intestinal Absorption in Rats” (PLoS ONE, 2014).
Where two headings read alike, the source gives them in different places.

Assays:
Caco-2 cells = assay: In vitro Caco-2 monolayer model, apical to basolateral transport (P app); type: in vitro ADME, human; conditions: for P app in product C group, % compared with that in product B group / P app in product C group, % compared to that in product A group: HBSS pH 6.0, apical to basolateral; for absorption into Caco-2 cells: dipsacoside B, macranthoidin B in product C or A group, arctiin in product C or B group
Method: Caco-2 cells were cultured in high glucose DMEM with 10% fetal bovine serum, 1% nonessential amino acids. Cells were cultured in a humidified atmosphere of 5% CO2 at 37°C. After reaching 80% confluens, Caco-2 cells were harvested with 0.05% trypsin-EDTA solution and seeded on top of CC inserts in 6-well plates, which has a surface area of 4.2 cm^2, at a density of 1.0×10^5 cells/cm^2. The protocols for cell culture in Transwell inserts were similar to those described previously.
Hank’s balanced salt solution (HBSS) was used as the transport buffer for the transport study in Caco-2 cells monolayer model. It was prepared by dissolving 9.5 grams of commercial available HBSS powder in 1000 mL water.
Cell culture experiments were described previously. Briefly, after culture medium was aspirated, the cell monolayers were washed three times with blank HBSS. […] The monolayers were incubated with the blank HBSS for 1 h with 37°C. Thereafter the incubation medium was aspirated. Afterwards, a solution containing the compound was loaded onto the apical side. The amounts of transported compound were measured as a function of time. […] The samples were taken at 0, 1, 2, 3 and 4 h after incubation. At the end of the transport experiment, integrity of the monolayer was monitored by TEER value.

[1] = Rat in vivo pharmacokinetics study after oral administration of product A, B or C; set-up: species or system Male Sprague-Dawley (SD) rats; AUC 0→t in product C group, increased to % compared to that in product A or B groups: concentration or dose not given beside the values; conditions: for AUC(0-inf) / MRT / Tmax / half-life / Cmax: po, 10 mL·kg^−1, rats; for half-life: read-out: T 1/2z; for Cmax: mean±SD; for AUC 0→t in product C group compared with product A or B group: same dosages administrated
Method: Product A (extract mixed with FLJ extract and water, (1∶1, v / v )), product B (extract mixed with FF extract and water, (1∶1, v / v )) and product C (extract mixed with FLJ and FF extracts, (1∶1, v / v )) were given to oral administration to rats, respectively.
Male SD rats (∼250 g) were kept in an environmentally controlled breeding room (temperature: 20±2°C, relative humidity: 60±5%) for 1 week. […] The rats were randomly divided into three groups with no less than six rats in each group to receive various administrations at a single oral dose (10 mL·kg^−1) by gastric gavage. […] Subsequently, plasma was prepared by centrifugation at 1,816×g, 4°C for 7 min, and immediately analyzed or stored at −70°C for further analysis.
The main pharmacokinetic parameters including the peak plasma concentration (C max), the time to C max (T max), the AUC from 0 to infinity (AUC 0–∞), the AUC form 0 to time (AUC 0–t), mean residence time (MRT), and terminal elimination half-life (T 1/2z) were calculated by the non-compartmental analysis of plasma concentration vs. time data using the “DAS 2.1.1” software (Mathematical Pharmacology Professional Committee of China, Shanghai, China).

[2] = male, Sprague-Dawley, rat, plasma, oral product B, 10 mL·kg^−1
[3] = male, Sprague-Dawley, rat, plasma, oral product C, 10 mL·kg^−1
[4] = male, Sprague-Dawley, rat, plasma, single oral dose 10 mL·kg^−1 of product B (FF extract and water 1:1)
[5] = male, Sprague-Dawley, rat, plasma, single oral dose 10 mL·kg^−1 of product C (FLJ and FF extracts 1:1)
[6] = male, Sprague-Dawley, rat, plasma, oral product A, 10 mL·kg^−1
[7] = male, Sprague-Dawley, rat, plasma, single oral dose 10 mL·kg^−1 of product A (FLJ extract and water 1:1)

Row | Compound | P app in product C group, % compared with that in product B group (Caco-2 cells; Caco-2 monolayer) [%] | AUC(0-inf) [1, 2] [ng·h/mL] | MRT [1, 2] [h] | Tmax [1, 2] [h] | half-life [1, 2] [h] | AUC(0-inf) [1, 3] [ng·h/mL] | MRT [1, 3] [h] | Tmax [1, 3] [h] | half-life [1, 3] [h] | Cmax [1, 4] [ng/mL] | Cmax [1, 5] [ng/mL] | P app in product C group, % compared to that in product A group (Caco-2 cells; Caco-2 monolayer) [%] | MRT [1, 6] [h] | Tmax [1, 6] [h] | half-life [1, 6] [h] | bioavailability in product C group compared with that in product A group ([1]; rats, oral) | bioavailability in product C group compared with that in product B group ([1]; rats, oral) | AUC(0-inf) [1, 6] [ng·h/mL] | Cmax [1, 7] [ng/mL] | further results
1 | COc1cc(C[C@H]2C(=O)OC[C@@H]2Cc2ccc(OC)c(OC)c2)ccc1O [Arctigenin] | 110 | 4.44 | 9.33 | 0.333 | 10.4 ± 0.36 | 3.99 | 9.4 | 0.333 | 8.9 ± 0.898 | 0.895 ± 0.166 | 0.231 ± 0.144 | – | – | – | – | – | – | – | – | AUC 0→t in product C group compared with product A or B group ([1]; rats, oral): lower significantly
2 | C[C@@H]1O[C@@H](O[C@H]2[C@H](O[C@H]3CC[C@@]4(C)[C@@H](CC[C@]5(C)[C@@H]4CC=C4[C@@H]6CC(C)(C)CC[C@]6(C(=O)O[C@@H]6O[C@H](CO[C@@H]7O[C@H](CO)[C@@H](O)[C@H](O)[C@H]7O)[C@@H](O)[C@H](O)[C@H]6O)CC[C@]45C)[C@]3(C)CO)OC[C@H](O)[C@@H]2O)[C@H](O)[C@H](O)[C@H]1O [dipsacoside B] | – | – | – | – | – | – | – | – | – | – | – | – | – | – | – | – | – | – | – | absorption into Caco-2 cells (Caco-2 cells): might not be absorbed well
3 | COc1ccc(C[C@H]2COC(=O)[C@@H]2Cc2ccc(O[C@@H]3O[C@H](CO)[C@@H](O)[C@H](O)[C@H]3O)c(OC)c2)cc1OC [arctiin] | – | – | – | – | – | – | – | – | – | – | – | – | – | – | – | – | – | – | – | absorption into Caco-2 cells (Caco-2 cells): might not be absorbed well
4 | O=C(O)[C@]1(O)C[C@@H](O)[C@@H](O)[C@H](O)C1 [Quinic acid] | 24.0 | – | 4.5 | 0.3 | 4.1 ± 0.628 | – | 7.35 | 0.167 | 5.5 ± 1.27 | 358 ± 157 | – | 301 | 3.98 | 0.35 | 3.82 ± 0.28 | no significant difference | higher significantly | – | – | –
5 | O=c1c(O[C@@H]2O[C@H](CO)[C@@H](O)[C@H](O)[C@H]2O)c(-c2ccc(O)c(O)c2)oc2cc(O)cc(O)c12 [Isoquercitrin] | 234 | 3.25 | 8.3 | 0.333 | 7.85 ± 0.515 | 5.51 | 9.25 | 0.267 | 7.58 ± 0.868 | 0.619 ± 0.212 | 1 ± 0.3 | 169 | 9.28 | 0.167 | 7.27 ± 0.438 | no significantly different | no significantly different | 2.63 | 0.504 ± 0.351 | –
6 | O=C(O)/C=C/c1ccc(O)c(O)c1 [Caffeic acid] | 247 | 683 | 5.57 | 0.167 | 5.53 ± 0.893 | 737 | 6.28 | 0.167 | 6.53 ± 1.02 | 91.1 ± 6.74 | 98.1 ± 16.2 | 275 | 6.65 | 0.167 | 6 ± 1.1 | significantly lower | no significant difference | 1190 | 181 ± 17.6 | –
7 | COc1cc(C2OCC3C(c4ccc(O[C@@H]5O[C@H](CO)[C@@H](O)[C@H](O)[C@H]5O)c(OC)c4)OCC23)ccc1O (stereo partly drawn) [Pinoresinol-β-D-glucoside] | – | 32 | 4.1 | 0.167 | 3.37 ± 0.21 | 67.8 | 7.57 | 0.167 | 5.25 ± 0.472 | 11.9 ± 4.36 | 32.3 ± 7.57 | – | – | – | – | – | – | – | – | P app, product C group versus product B group (Caco-2 cells; Caco-2 monolayer): no significant difference; AUC(0-t) ([1]; male, Sprague-Dawley, rat, plasma, 10 mL·kg^−1, rats, oral product C group): 17.1 ng·h/mL; AUC 0→t in product C group, increased to % compared to that in product A or B groups ([1]; rats, oral, product C versus product A or B): 299%
8 | O=c1cc(-c2ccc(O)c(O)c2)oc2cc(O)cc(O)c12 [Luteolin] | – | – | – | – | – | 46.9 | 4.67 | 0.167 | 4.42 ± 0.262 | – | 19.5 ± 5.43 | 240 | 5.78 | 0.167 | 7.05 ± 0.943 | – | – | 88.3 | 44.9 ± 19.8 | AUC 0→t in product C group compared with product A or B group ([1]; rats, oral): lower significantly
9 | C[C@@H]1O[C@@H](OC[C@H]2O[C@@H](Oc3c(-c4ccc(O)c(O)c4)oc4cc(O)cc(O)c4c3=O)[C@H](O)[C@@H](O)[C@@H]2O)[C@H](O)[C@H](O)[C@H]1O [Rutin] | 210 | 30.5 | 4.35 | – | 8.17 ± 1.55 | 22.8 | 4.88 | 0.167 | 7.55 ± 0.613 | 14.6 ± 1.65 | 19.8 ± 3.93 | 213 | 5.02 | 0.167 | 7.93 ± 0.837 | significantly higher | no significant difference | 10.3 | 4.08 ± 1.99 | –
10 | O=c1c(O)c(-c2ccc(O)c(O)c2)oc2cc(O)cc(O)c12 [Quercetin] | 256 | 65 | 7 | 0.167 | 5.27 ± 0.93 | 52.4 | 7.12 | 0.167 | 4.67 ± 1.05 | 12.6 ± 2.23 | 8.02 ± 0.493 | 125 | 8.22 | 0.167 | 4.62 ± 0.877 | opposite | opposite | 144 | 15.6 ± 4.39 | –
